Consider one molecule from publication PMC12053642, “Oral PRI-002 treatment in patients with MCI or mild AD: a randomized, double-blind phase 1b trial” (Nature Communications, 2025).

Structures are written as SMILES. Square brackets hold non-standard residues; d marks the D form. Peptide text beside a SMILES is read from it.

The test system of the data set is patients with MCI or mild dementia due to AD. Put plainly: Safety laboratory (hematology, clinical chemistry, hematoserology). The class given is in vivo, human. The following applies: 300 mg q.d. oral 28 d. The method, then:
All safety parameters and laboratory values (urinalysis, complete blood count (CBC), Quick, partial thromboplastin time (PTT), creatinine, […] (CK), […] (CRP), alanine aminotransaminase (ALT), aspartate aminotransferase (AST)) as well as ECG, EEG, MRI, and vital signs were analyzed in a descriptive manner according to their scales (frequencies, means). In order to compare a variable between both groups (placebo vs PRI-002) at one time point, a parameter free Wilcoxon rank sum test was used. As described in the statistical analysis plan, linear mixed models with random effect were used for the comparison of longitudinal effects between both groups (placebo vs PRI-002). ANOVA was also applied to assess longitudinal effects. Since the results are similar to the linear mixed models, results are presented using linear mixed models. A 95% confidence interval was used to check whether the parameters are within their normal ranges. The p value (p < 0.05) for the word list test was not corrected for multiplicity. All statistical data analysis was performed with the certified software Statistical Analysis System (SAS) by MicroDiscovery GmbH (Berlin, Germany).

The mark [1] stands for this setting: EoT (Day 28), geometric mean ± SD.
Where [2] appears, read: FU EoS (Day 56), geometric mean ± SD.

`CC(C)C[C@@H](NC(=O)[C@H](NC(=O)[C@H]1CCCN1)[C@H](C)O)C(=O)N[C@H](Cc1c[nH]cn1)C(=O)N[C@@H](C(=O)N[C@H](Cc1c[nH]cn1)C(=O)N[C@H](CC(N)=O)C(=O)N[C@H](CCCNC(=N)N)C(=O)N[C@H](CCCNC(=N)N)C(=O)N[C@H](CCCNC(=N)N)C(=O)N[C@H](CCCNC(=N)N)C(=O)N[C@H](CCCNC(=N)N)C(N)=O)[C@H](C)O` [PRI-002] (H-[dP][dT][dL][dH][dT][dH][dN][dR][dR][dR][dR][dR]-NH2; N-terminus and C-terminus assumed): the Hematocrit (Baseline (Day 1), geometric mean ± SD) stood at 0.38±0.03 l/l. For the setting “Day 14, geometric mean ± SD”, the Erythrocyte worked out at 4.14 ± 0.42 pL⁻¹, the Leucocyte worked out at 5.95 ± 1.71 nL⁻¹, the PTT is 31.60 ± 3.95 s and the “Quick value (prothrombin time)” value came out at 96.99±21.30%. Besides, under setting [1], the Erythrocyte stood at 4.06 ± 0.44 pL⁻¹, the Leucocyte is 5.86 ± 1.81 nL⁻¹, the PTT came to 29.71 ± 1.94 s and the “Quick value (prothrombin time)” value was 101.13±9.55%. Under setting [2], this molecule came in with an Erythrocyte of 4.10 ± 0.50 pL⁻¹, a Hematocrit of 0.40±0.03 l/l, a Leucocyte of 5.66 ± 1.41 nL⁻¹ and a PTT of 30.96 ± 3.11 s. The “Quick value (prothrombin time)” value under setting [2] worked out at 98.71±21.08%. The Hematocrit (Screening (Day 0), geometric mean ± SD) worked out at 0.39±0.03 l/l. Also, for the setting “screening to midterm visit to end of treatment”, the “changes in laboratory parameters (clinical chemistry, blood count, hematoserology)” value is reported as “no clinically relevant changes”.
